# Results: patent US12402629B2, “Aspergillus terreus strain and composition for controlling bacterial plant diseases using strain or culture filtrate thereof” (Andong National University Industry-Academic Cooperation …, priority 2022, dated 2025)
# Entries after “also recorded” stand apart in the source; their conditions may differ.
# Experiments:
# Dickeya chrysanthemi [1] = test: Pathogen inoculation experiment on potato (potato soft rot control effect); type: in vivo; settings: potato treated at the same time with D.c. suspension 2×10^6 cfu/ml and 400 ppm MPP (FIG. 6)
# Description: In order to test whether the culture filtrate of the Aspergillus terreus ANU-301 strain of the present disclosure has a control effect on potato soft rot caused by Dickeya chrysanthemi bacteria, a pathogen inoculation experiment was performed (FIG. 3).
# In potato plants inoculated with Dickeya chrysanthemi bacteria (D.c.), browning progressed at the inoculation site, and symptoms of soft rot disease were confirmed.
# A pathogen inoculation experiment was conducted to test whether the MPP component present in the culture filtrate of the Aspergillus terreus ANU-301 strain of the present disclosure is effective in controlling potato soft rot disease caused by Dickeya chrysanthemi bacteria (FIG. 6). In potato plants inoculated with Dickeya chrysanthemi bacteria (D.c.), browning progressed at the inoculation site, and symptoms of soft rot disease were confirmed. […] Hereinafter, the present disclosure will be described in more detail with reference to Examples. However, these examples are presented merely to describe the present disclosure in more detail, and the scope of the present disclosure is not limited to these examples.
# In order to evaluate the effect of the ANU-301 strain culture filtrate on potato soft rot inhibition, the culture filtrate was prepared as follows.
# The ANU-301 strain was inoculated into sterilized potato dextrose broth (PDB) and cultured at 25° C. for 5 days. […]
# Dickeya chrysanthemi [2] = test: Disc diffusion assay on NA medium; type: cell-based; settings: paper filter disk wetted with 400 ppm of MPP, NA medium (FIG. 5)
# Description: To this end, the NA medium (Nutrient agar medium: peptone 5 g, beef extract 1.5 g, yeast extract 1.5 g, NaCl 5 g & agar 15 g/1 L) was smeared with Dickeya chrysanthemi bacteria. After placing a paper filter disk in the center of the medium, 10 μL of culture extract and 400 ppm of MPP were wetted therein, respectively, and the result of culturing the bacteria was observed.
structure (smiles),measurement,setting,value
"CC(C)(c1ccccc1)c1ccc(O)c(C(C)(C)c2ccccc2)c1 [MPP, 2,4-bis(1-methyl-1-phenylethyl)-phenol]",soft rot symptoms (disease control effect),Dickeya chrysanthemi [1],soft rot symptoms were suppressed; also recorded: showed a disease inhibitory effect
same,bacterial growth / clear zone around the disk,Dickeya chrysanthemi [2],a clear zone was formed
